From PubChem BioAssay (NCI)
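Briefly, cells in 96-well plates were exposed to five compound concentrations for 48 h, and endpoints were estimated by linear interpolation. The concentration for full growth arrest is given as TGI.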

Experiments:
Assay in all cases: NCI-60 cell line screen, 48 h
786-0 renal = test system: 786-0 renal
A498 renal = test system: A498 renal
A549 NSCLC = test system: A549 NSCLC
ACHN renal = test system: ACHN renal
BT-549 breast = test system: BT-549 breast
CAKI-1 renal = test system: CAKI-1 renal
CCRF-CEM leukemia = test system: CCRF-CEM leukemia
COLO 205 colon = test system: COLO 205 colon
DU-145 prostate = test system: DU-145 prostate
EKVX NSCLC = test system: EKVX NSCLC
HCC-2998 colon = test system: HCC-2998 colon
HCT-116 colon = test system: HCT-116 colon
HCT-15 colon = test system: HCT-15 colon
HL-60(TB) leukemia = test system: HL-60(TB) leukemia
HOP-92 NSCLC = test system: HOP-92 NSCLC
HS 578T breast = test system: HS 578T breast
HT29 colon = test system: HT29 colon
IGROV1 ovarian = test system: IGROV1 ovarian
K-562 leukemia = test system: K-562 leukemia
KM12 colon = test system: KM12 colon
LOX IMVI melanoma = test system: LOX IMVI melanoma
M14 melanoma = test system: M14 melanoma
MALME-3M melanoma = test system: MALME-3M melanoma
MCF7 breast = test system: MCF7 breast
MDA-MB-231 breast = test system: MDA-MB-231 breast
MDA-MB-435 = test system: MDA-MB-435
MDA-N = test system: MDA-N
MOLT-4 leukemia = test system: MOLT-4 leukemia
NCI-H226 lung = test system: NCI-H226 lung
NCI-H23 lung = test system: NCI-H23 lung
NCI-H460 lung = test system: NCI-H460 lung
NCI-H522 lung = test system: NCI-H522 lung
NCI/ADR-RES ovarian = test system: NCI/ADR-RES ovarian
OVCAR-3 ovarian = test system: OVCAR-3 ovarian
OVCAR-4 ovarian = test system: OVCAR-4 ovarian
OVCAR-5 ovarian = test system: OVCAR-5 ovarian
OVCAR-8 ovarian = test system: OVCAR-8 ovarian
PC-3 prostate = test system: PC-3 prostate
RPMI-8226 leukemia = test system: RPMI-8226 leukemia
RXF 393 renal = test system: RXF 393 renal
SF-268 CNS = test system: SF-268 CNS
SF-295 CNS = test system: SF-295 CNS
SF-539 CNS = test system: SF-539 CNS
SK-MEL-2 melanoma = test system: SK-MEL-2 melanoma
SK-MEL-28 melanoma = test system: SK-MEL-28 melanoma
SK-MEL-5 melanoma = test system: SK-MEL-5 melanoma
SK-OV-3 ovarian = test system: SK-OV-3 ovarian
SN12C renal = test system: SN12C renal
SNB-19 CNS = test system: SNB-19 CNS
SNB-75 CNS = test system: SNB-75 CNS
SR leukemia = test system: SR leukemia
SW-620 colon = test system: SW-620 colon
T-47D breast = test system: T-47D breast
TK-10 renal = test system: TK-10 renal
U251 CNS = test system: U251 CNS
UACC-257 melanoma = test system: UACC-257 melanoma
UACC-62 melanoma = test system: UACC-62 melanoma
UO-31 renal = test system: UO-31 renal
HOP-62 NSCLC = test system: HOP-62 NSCLC

O=S1SC(=S)C2C=CC=CC21 (centres undefined)
TGI (786-0 renal): > 100 µM | TGI (A498 renal): > 100 µM | TGI (A549 NSCLC): > 100 µM | TGI (ACHN renal): > 100 µM | TGI (BT-549 breast): > 100 µM | TGI (CAKI-1 renal): > 100 µM | TGI (CCRF-CEM leukemia): 39 µM | TGI (COLO 205 colon): > 100 µM | TGI (DU-145 prostate): > 100 µM | TGI (EKVX NSCLC): > 100 µM | TGI (HCC-2998 colon): > 100 µM | TGI (HCT-116 colon): > 100 µM | TGI (HCT-15 colon): > 100 µM | TGI (HL-60(TB) leukemia): > 100 µM | TGI (HOP-92 NSCLC): > 100 µM | TGI (HS 578T breast): > 100 µM | TGI (HT29 colon): > 100 µM | TGI (IGROV1 ovarian): > 100 µM | TGI (K-562 leukemia): > 100 µM | TGI (KM12 colon): > 100 µM | TGI (LOX IMVI melanoma): > 100 µM | TGI (M14 melanoma): > 100 µM | TGI (MALME-3M melanoma): > 100 µM | TGI (MCF7 breast): > 100 µM | TGI (MDA-MB-231 breast): > 100 µM | TGI (MDA-MB-435): > 100 µM | TGI (MDA-N): > 100 µM | TGI (MOLT-4 leukemia): > 100 µM | TGI (NCI-H226 lung): > 100 µM | TGI (NCI-H23 lung): > 100 µM | TGI (NCI-H460 lung): > 100 µM | TGI (NCI-H522 lung): > 100 µM | TGI (NCI/ADR-RES ovarian): > 100 µM | TGI (OVCAR-3 ovarian): > 100 µM | TGI (OVCAR-4 ovarian): > 100 µM | TGI (OVCAR-5 ovarian): > 100 µM | TGI (OVCAR-8 ovarian): > 100 µM | TGI (PC-3 prostate): > 100 µM | TGI (RPMI-8226 leukemia): > 100 µM | TGI (RXF 393 renal): > 100 µM | TGI (SF-268 CNS): > 100 µM | TGI (SF-295 CNS): > 100 µM | TGI (SF-539 CNS): > 100 µM | TGI (SK-MEL-2 melanoma): > 100 µM | TGI (SK-MEL-28 melanoma): > 100 µM | TGI (SK-MEL-5 melanoma): > 100 µM | TGI (SK-OV-3 ovarian): > 100 µM | TGI (SN12C renal): > 100 µM | TGI (SNB-19 CNS): > 100 µM | TGI (SNB-75 CNS): > 100 µM | TGI (SR leukemia): > 100 µM | TGI (SW-620 colon): > 100 µM | TGI (T-47D breast): > 100 µM | TGI (TK-10 renal): > 100 µM | TGI (U251 CNS): > 100 µM | TGI (UACC-257 melanoma): > 100 µM | TGI (UACC-62 melanoma): > 100 µM | TGI (UO-31 renal): > 100 µM

Cc1cc(C)nc(NS(=O)(=O)c2ccc(NC(=O)c3cccc4c(NNc5ccc(S(=O)(=O)N=C(N)N)cc5)c5ccccc5nc34)cc2)n1
TGI (786-0 renal): > 50 µM | TGI (A498 renal): > 50 µM | TGI (A549 NSCLC): > 50 µM | TGI (ACHN renal): > 50 µM | TGI (BT-549 breast): > 50 µM | TGI (CAKI-1 renal): > 50 µM | TGI (CCRF-CEM leukemia): > 50 µM | TGI (COLO 205 colon): > 50 µM | TGI (DU-145 prostate): > 50 µM | TGI (EKVX NSCLC): > 50 µM | TGI (HCC-2998 colon): > 50 µM | TGI (HCT-116 colon): > 50 µM | TGI (HCT-15 colon): > 50 µM | TGI (HL-60(TB) leukemia): > 50 µM | TGI (HOP-62 NSCLC): > 50 µM | TGI (HOP-92 NSCLC): > 50 µM | TGI (HS 578T breast): > 50 µM | TGI (HT29 colon): > 50 µM | TGI (IGROV1 ovarian): > 50 µM | TGI (K-562 leukemia): > 50 µM | TGI (KM12 colon): > 50 µM | TGI (LOX IMVI melanoma): > 50 µM | TGI (M14 melanoma): > 50 µM | TGI (MALME-3M melanoma): > 50 µM | TGI (MCF7 breast): > 50 µM | TGI (MDA-MB-231 breast): > 50 µM | TGI (MDA-MB-435): > 50 µM | TGI (MDA-N): > 50 µM | TGI (MOLT-4 leukemia): > 50 µM | TGI (NCI-H226 lung): > 50 µM | TGI (NCI-H23 lung): > 50 µM | TGI (NCI-H460 lung): > 50 µM | TGI (NCI-H522 lung): > 50 µM | TGI (NCI/ADR-RES ovarian): > 50 µM | TGI (OVCAR-3 ovarian): > 50 µM | TGI (OVCAR-4 ovarian): > 50 µM | TGI (OVCAR-8 ovarian): > 50 µM | TGI (PC-3 prostate): > 50 µM | TGI (RPMI-8226 leukemia): > 50 µM | TGI (RXF 393 renal): > 50 µM | TGI (SF-268 CNS): > 50 µM | TGI (SF-295 CNS): > 50 µM | TGI (SF-539 CNS): > 50 µM | TGI (SK-MEL-5 melanoma): > 50 µM | TGI (SK-OV-3 ovarian): > 50 µM | TGI (SN12C renal): > 50 µM | TGI (SNB-19 CNS): > 50 µM | TGI (SNB-75 CNS): > 50 µM | TGI (SR leukemia): > 50 µM | TGI (SW-620 colon): > 50 µM | TGI (T-47D breast): > 50 µM | TGI (TK-10 renal): > 50 µM | TGI (U251 CNS): > 50 µM | TGI (UACC-257 melanoma): > 50 µM | TGI (UACC-62 melanoma): > 50 µM | TGI (UO-31 renal): > 50 µM
